# From ChEMBL document CHEMBL3045541, “Synthesis and systemic fungicidal activity of silicon-containing azole derivatives” (2000)
# Tested on: Rhizoctonia solani
# Assay: Fungicidal activity against Rhizoctonia solani infected Oryza sativa var. Nipponbare assessed per 10 […] applied by submerged-treatment 7 days prior to infection measured after 5 days
# Format: functional
row,SMILES,MED
1,C[Si](C)(C)CCC(O)(Cn1cncn1)c1ccc(F)cc1 (stereo unspecified),>100 g
2,CCC(C(O)(Cn1cncn1)c1ccc(F)cc1)[Si](C)(C)C (stereo unspecified),50 g
3,C=CC(C(O)(Cn1cncn1)c1ccc(F)cc1)[Si](C)(C)C (stereo unspecified),100 g
4,C[Si](C)(C)C#CC(O)(Cn1cncn1)c1ccc(Cl)cc1Cl (stereo unspecified),>100 g
5,C=CC(C(O)(Cn1cncn1)c1ccc(Cl)cc1)[Si](C)(C)C (stereo unspecified),>100 g
6,C[Si](C)(C)CC(O)(Cn1ccnn1)c1ccc(F)cc1 (stereo unspecified),>100 g
7,C[Si](C)(C)CC(O)(Cn1nccn1)c1ccc(F)cc1 (stereo unspecified),>100 g
8,CC(C)(n1cncn1)C(O)(C[Si](C)(C)C)c1ccc(F)cc1 (stereo unspecified),>100 g
9,C[Si](C)(C)CC(O)(Cn1ccnc1)c1ccc(F)cc1 (stereo unspecified),>100 g
10,C[Si](C)(C)CC(O)(Cn1cnnc1)c1ccc(F)cc1 (stereo unspecified),>100 g
11,C[Si](C)(C)CC(O)(Cn1cncn1)c1ccccc1F (stereo unspecified),100 g
12,CC(n1cncn1)C(O)(C[Si](C)(C)C)c1ccc(F)cc1 (stereo unspecified),50 g
13,CCC(n1cncn1)C(O)(C[Si](C)(C)C)c1ccc(F)cc1 (stereo unspecified),>100 g
14,C[Si](C)(C)CC(O)(Cn1cncn1)c1ccc(Cl)cc1F (stereo unspecified),50 g
15,C[Si](C)(C)CC(O)(Cn1cncn1)c1cccc(F)c1 (stereo unspecified),50 g
16,C[Si](C)(C)CC(O)(Cn1cncn1)c1ccc(C(F)(F)F)cc1 (stereo unspecified),100 g
17,C[Si](C)(C)CC(O)(Cn1cncn1)c1ccc(Br)cc1 (stereo unspecified),>100 g
18,C[Si](C)(C)CC(O)(Cn1cncn1)c1ccc(F)cc1F (stereo unspecified),100 g
19,C[Si](C)(C)CC(O)(Cn1cncn1)c1ccccc1 (stereo unspecified),50 g
20,Cc1ccc(C(O)(Cn2cncn2)C[Si](C)(C)C)cc1 (stereo unspecified),>100 g
21,COc1ccc(C(O)(Cn2cncn2)C[Si](C)(C)C)cc1 (stereo unspecified),>100 g
22,C[Si](C)(C)CC(O)(Cn1cncn1)c1ccc(Cl)cc1Cl (stereo unspecified),100 g
23,C[Si](C)(C)CC(O)(Cn1cncn1)c1ccc(Cl)cc1 (stereo unspecified),25 g
24,CC(C)Oc1cccc(NC(=O)c2ccccc2C(F)(F)F)c1 [FLUTOLANIL],>100 g
25,CCCCC(O)(Cn1cncn1)c1ccc(Cl)cc1Cl (stereo unspecified) [HEXACONAZOLE],50 g
26,C[Si](C)(C)CC(O)(Cn1cncn1)c1ccc(F)cc1 (stereo unspecified) [SIMECONAZOLE],12.5 g
